Structures can show the parent of a compound that is named as a salt. Where two headings read alike, the source gives them in different places.

Experiment [1] has as its target human FLAP (Homo sapiens (Human), UniProt P20292). In words: FLAP binding assay (HTRF format). The procedure, abridged: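 Reported data take the mean of two different plates carrying duplicate samples and use the HTRF ratio as the measured signal.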
On the technique in general: In TR-FRET formats the signal depends on donor and acceptor labels being close together.

Experiment [2] deals with leukotriene pathway in human whole blood (LTB4 levels). In words: Human whole blood assay (A23187-stimulated LTB4). The settings on record: Homo sapiens, human whole blood diluted 1:1, A23187-stimulated; read-out: LTB4 IC50 1:1. It counts as cell-based. The procedure, abridged: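 Single-replicate data from at least one healthy donor: compound pre-incubated 15 min at 37° Celsius in 1:1 RPMI-diluted heparinised blood, followed by 30 min calcium ionophore A23187 (7 μg/mL) challenge at 37° Celsius. LTB4 in plasma quantified by kit; IC50 via 4-parameter equation.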

Where [3] appears, read: read-out: FLAP Binding wild type HTRF Ki.

Sequence of human FLAP (P20292 whole entry): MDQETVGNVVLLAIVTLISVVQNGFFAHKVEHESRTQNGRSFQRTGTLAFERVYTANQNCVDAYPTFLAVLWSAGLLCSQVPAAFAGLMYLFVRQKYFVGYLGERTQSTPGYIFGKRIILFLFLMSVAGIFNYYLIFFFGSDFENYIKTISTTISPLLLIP

One may read the Ki as the equilibrium dissociation constant of an inhibitor or competing ligand from its target. One may read the IC50 as the concentration needed to halve the response being measured. `Nc1ccc(Oc2ccccc2-c2ccc(-c3cnc(N)nc3)c(F)c2)nc1` [Example 621, 5-{2′-[(5-Aminopyridin-2-yl)oxy]-3-fluorobiphenyl-4-yl}pyrimidin-2-amine]: in experiment [1] (wild type FLAP, HTRF format), the Ki was determined as 5 nM. In addition, the IC50 in experiment [2] amounted to 101 nM.

As for `Cc1nc(N)cc(Oc2ccccc2-c2ccc(-c3cnc(N)nc3)c(F)c2)n1` [Example 622, 5-{2′-[(6-Amino-2-methylpyrimidin-4-yl)oxy]-3-fluorobiphenyl-4-yl}pyrimidin-2-amine], the affinity in experiment [1] (wild type FLAP, HTRF format) corresponds to a Ki of 46.1 nM. Moreover, the half-maximal inhibitory concentration (IC50) in experiment [2] was determined as 340 nM.

`Cc1nc(N)cc(Oc2ccccc2-c2ccc(-c3cnc(N)cn3)c(F)c2)n1` [Example 623, 6-{[4′-(5-Aminopyrazin-2-yl)-3′-fluorobiphenyl-2-yl]oxy}-2-methylpyrimidin-4-amine]: in experiment [1] (wild type FLAP, HTRF format), the inhibition constant Ki was determined as 4.9 nM. Further, the IC50 in experiment [2] worked out at 93.5 nM.

In experiment [1] (wild type FLAP, HTRF format), `Nc1cnc(-c2ccc(-c3ccccc3Oc3cccc(C(F)(F)F)n3)cc2F)cn1` [Example 625, 5-(3-Fluoro-2′-{[6-(trifluoromethyl)pyridin-2-yl]oxy}biphenyl-4-yl)pyrazin-2-amine] registered a Ki of 7.8 nM. The IC50 in experiment [2] was determined as 173 nM.

`N#Cc1ccc(Oc2ccccc2-c2ccc(-c3cnc(N)cn3)c(F)c2)nc1` [Example 626, 6-{[4′-(5-Aminopyrazin-2-yl)-3′-fluorobiphenyl-2-yl]oxy}pyridine-3-carbonitrile] registered an inhibition constant (Ki) in experiment [1] (wild type FLAP, HTRF format) of 6.2 nM. For the same compound, the 50% inhibitory concentration (IC50) in experiment [2] is 45.3 nM.

Regarding `N#Cc1ccc(Oc2ccccc2-c2ccc(-c3cnc(N)nc3)c(F)c2)nc1` [Example 627, 6-{[4′-(2-Aminopyrimidin-5-yl)-3′-fluorobiphenyl-2-yl]oxy}pyridine-3-carbonitrile], in experiment [1] (wild type FLAP, HTRF format), the Ki stood at 43.7 nM. Also, the IC50 in experiment [2] amounted to 366 nM.

In experiment [1] (wild type FLAP, HTRF format), `Nc1cnc(-c2ccc(-c3ccccc3Oc3cc(C4CC4)ncn3)cc2F)cn1` [Example 636, 5-{2′-[(6-Cyclopropylpyrimidin-4-yl)oxy]-3-fluorobiphenyl-4-yl}pyrazin-2-amine] registered an inhibition constant Ki of 4.6 nM. In experiment [2], the IC50 came to 107 nM.

In turn, `Nc1ncc(-c2ccc(-c3ccccc3Oc3cc(C4CC4)ncn3)cc2F)cn1` [Example 637, 5-{2′-[(6-Cyclopropylpyrimidin-4-yl)oxy]-3-fluorobiphenyl-4-yl}pyrimidin-2-amine] yielded a Ki in experiment [1] (wild type FLAP, HTRF format) of 18.8 nM. Further, the half-inhibitory concentration (IC50) in experiment [2] is 398 nM.

With `Nc1cnc(-c2ccc(-c3ccccc3Oc3ccnc(N)c3)cc2F)cn1` [Example 638, 5-{2′-[(2-Aminopyridin-4-yl)oxy]-3-fluorobiphenyl-4-yl}pyrazin-2-amine], the Ki in experiment [1] (wild type FLAP, HTRF format) was 1.4 nM. The IC50 in experiment [2] stood at 14.8 nM.

Take `Nc1cc(Oc2ccccc2-c2ccc(-c3cnc(N)nc3)c(F)c2)ccn1` [Example 639, 5-{2′-[(2-Aminopyridin-4-yl)oxy]-3-fluorobiphenyl-4-yl}pyrimidin-2-amine]: the affinity in experiment [1] (wild type FLAP, HTRF format), expressed as Ki, was 7.2 nM. Besides, in experiment [2], the half-inhibitory concentration (IC50) turned out to be 67 nM.

On to `N#CCOc1ccccc1-c1ccc(-c2cnc(N)cn2)c(F)c1` [Example 642, {[4′-(5-Aminopyrazin-2-yl)-3′-fluorobiphenyl-2-yl]oxy}acetonitrile], for which the affinity in experiment [1] (wild type FLAP, HTRF format), expressed as Ki, was 78.8 nM. Also, the half-maximal inhibitory concentration (IC50) in experiment [2] is 981 nM.

In turn, `N#CCOc1ccccc1-c1ccc(-c2cnc(N)nc2)c(F)c1` [Example 643, {[4′-(2-Aminopyrimidin-5-yl)-3′-fluorobiphenyl-2-yl]oxy}acetonitrile] showed an inhibition constant (Ki) in experiment [1] (wild type FLAP, HTRF format) of 322 nM. Further, in experiment [2], the IC50 was 4290 nM.

Compound `Nc1ncc(-c2ccc(-c3cccnc3O[C@H]3CC[C@H](N)CC3)cc2F)cn1` [Example 651, 5-(4-{2-[(trans-4-Aminocyclohexyl)oxy]pyridin-3-yl}-2-fluorophenyl)pyrimidin-2-amine] gave a Ki in experiment [1] (wild type FLAP, HTRF format) of 306 nM. Besides, the IC50 in experiment [2] is 1540 nM.

`Nc1cnc(-c2ccc(-c3cccnc3O[C@H]3CC[C@H](N)CC3)cc2F)cn1` [Example 652, 5-(4-{2-[(trans-4-Aminocyclohexyl)oxy]pyridin-3-yl}-2-fluorophenyl)pyrazin-2-amine formic acid salt] came in with an inhibition constant Ki in experiment [1] (wild type FLAP, HTRF format) of 62.7 nM. Also, the IC50 in experiment [2] came out at 842 nM.

In experiment [1] (wild type FLAP, HTRF format), `Nc1cnc(-c2ccc(-c3cccnc3OC3CCOCC3)cc2F)cn1` [Example 653, 5-{2-Fluoro-4-[2-(tetrahydro-2H-pyran-4-yloxy)pyridin-3-yl]phenyl}pyrazin-2-amine] had an inhibitory constant (Ki) of 17.3 nM. Also, the IC50 in experiment [2] is 527 nM.

In experiment [1] (wild type FLAP, HTRF format), `Nc1ncc(-c2ccc(-c3cccnc3OC3CCOCC3)cc2F)cn1` [Example 654, 5-{2-Fluoro-4-[2-(tetrahydro-2H-pyran-4-yloxy)pyridin-3-yl]phenyl}pyrimidin-2-amine] showed a Ki of 130 nM. The IC50 in experiment [2] worked out at 1050 nM.

The compound `Nc1ccc(-c2ccc(-c3ccccc3S(=O)(=O)N3CCOCC3)cc2F)cn1` [Example 660, 5-(3-Fluoro-2′-(morpholinosulfonyl)-[1,1′-biphenyl]-4-yl)pyridin-2-amine] registered an inhibition constant Ki in experiment [1] (wild type FLAP, HTRF format) of 83.3 nM. Further, in experiment [2], the concentration for half-maximal inhibition (IC50) was above 10000 nM.

Consider `Nc1ccc(-c2ccc(-c3ccccc3S(=O)(=O)N3C[C@@H]4C[C@H]3CO4)cc2F)cn1` [Example 663, 5-(2′-((1S,4S)-2-Oxa-5-azabicyclo[2.2.1]heptan-5-ylsulfonyl)-3-fluoro-[1,1′-biphenyl]-4-yl)pyridin-2-amine], for which the Ki in experiment [1] (wild type FLAP, HTRF format) was 5.8 nM. In addition, the IC50 in experiment [2] turned out to be 34.7 nM.

Consider `CC(C)(CO)NS(=O)(=O)c1ccccc1-c1ccc(-c2ccc(N)nc2)c(F)c1` [Example 665, 4′-(6-Aminopyridin-3-yl)-3′-fluoro-N-(1-hydroxy-2-methylpropan-2-yl)-[1,1′-biphenyl]-2-sulfonamide], for which the affinity in experiment [1] (wild type FLAP, HTRF format), expressed as Ki, was 2.6 nM. In addition, the IC50 in experiment [2] came to 22.4 nM.

Compound `CC(C)(CO)NS(=O)(=O)c1ccccc1-c1ccc(-c2cnc(N)c(F)c2)c(F)c1` [Example 667, 4′-(6-Amino-5-fluoropyridin-3-yl)-3′-fluoro-N-(1-hydroxy-2-methylpropan-2-yl)-[1,1′-biphenyl]-2-sulfonamide] had a Ki in experiment [1] (wild type FLAP, HTRF format) of 6 nM. In addition, the half-inhibitory concentration (IC50) in experiment [2] was found to be 39.6 nM.

The compound `C[C@@H]([C@@H](O)c1ccccc1)N(C)S(=O)(=O)c1ccccc1-c1ccc(-c2cnc(N)c(F)c2)c(F)c1` [Example 669, 4′-(6-Amino-5-fluoropyridin-3-yl)-3′-fluoro-N-((1S,2S)-1-hydroxy-1-phenylpropan-2-yl)-N-methyl-[1,1′-biphenyl]-2-sulfonamide] displayed an inhibitory constant (Ki) in experiment [1] (wild type FLAP, HTRF format) of 4 nM. Moreover, the IC50 in experiment [2] worked out at 106 nM.

As to `C[C@@H](O)CNS(=O)(=O)c1ccccc1-c1cnc(-c2cnc(N)nc2)c(F)c1` [Example 673, 2-[6-(2-Aminopyrimidin-5-yl)-5-fluoropyridin-3-yl]-N-[(2R)-2-hydroxypropyl]benzenesulfonamide], the inhibition constant Ki in experiment [1] (wild type FLAP, HTRF format) was 134 nM. In addition, the 50% inhibitory concentration (IC50) in experiment [2] worked out at 101 nM.

As to `CCNS(=O)(=O)c1cc(C(F)(F)F)ccc1-c1cnc(-c2cnc(N)nc2)c(F)c1` [Example 674, 2-[6-(2-Aminopyrimidin-5-yl)-5-fluoropyridin-3-yl]-N-ethyl-5-(trifluoromethyl)benzenesulfonamide], the inhibition constant (Ki) in experiment [1] (wild type FLAP, HTRF format) is 2.4 nM. Further, the 50% inhibitory concentration (IC50) in experiment [2] was determined as 17.4 nM.

`CC(C)(C)NS(=O)(=O)c1ccccc1-c1cnc(-c2cnc(N)nc2)c(F)c1` [Example 675, 2-[6-(2-Aminopyrimidin-5-yl)-5-fluoropyridin-3-yl]-N-tert-butylbenzenesulfonamide] showed an inhibition constant Ki in experiment [1] (wild type FLAP, HTRF format) of 0.7 nM. For the same compound, in experiment [2], the half-inhibitory concentration (IC50) stood at 55.1 nM.

Regarding `Nc1ncc(-c2ccc(-c3ccc(C(F)(F)F)cc3CN3CCOCC3)cn2)cn1` [Example 676, 5-{5-[2-(Morpholin-4-ylmethyl)-4-(trifluoromethyl)phenyl]pyridin-2-yl}pyrimidin-2-amine], in experiment [1] (wild type FLAP, HTRF format), the Ki was found to be 234 nM. Besides, the IC50 in experiment [2] was found to be 3710 nM.

As for `Nc1ncc(-c2ccc(-c3ccccc3S(=O)(=O)N3CCCC(F)(F)C3)cn2)cn1` [Example 679, 5-(5-{2-[(3,3-Difluoropiperidin-1-yl)sulfonyl]phenyl}pyridin-2-yl)pyrimidin-2-amine trifluoroacetic acid salt], the Ki in experiment [1] (setting [3]) was 132 nM. Moreover, the IC50 in experiment [2] turned out to be 205 nM.

Regarding `Nc1ncc(-c2ccc(-c3ccccc3S(=O)(=O)N3CCC(F)(F)C3)cn2)cn1` [Example 680, 5-(5-{2-[(3,3-Difluoropyrrolidin-1-yl)sulfonyl]phenyl}pyridin-2-yl)pyrimidin-2-amine trifluoroacetic acid salt], the Ki in experiment [1] (setting [3]) was 610 nM. For the same compound, the 50% inhibitory concentration (IC50) in experiment [2] is 1050 nM.

The compound `Nc1ncc(-c2ccc(-c3ccccc3S(=O)(=O)N3CCCCCC3)cn2)cn1` [Example 681, 5-{5-[2-(Azepan-1-ylsulfonyl)phenyl]pyridin-2-yl}pyrimidin-2-amine trifluoroacetic acid salt] yielded a Ki in experiment [1] (wild type FLAP, HTRF format) of 52.2 nM. For the same compound, the IC50 in experiment [2] was 106 nM.

Compound `Nc1ncc(-c2ccc(-c3ccccc3S(=O)(=O)N3CCC(F)(F)CC3)cn2)cn1` [Example 682, 5-(5-{2-[(4,4-Difluoropiperidin-1-yl)sulfonyl]phenyl}pyridin-2-yl)pyrimidin-2-amine trifluoroacetic acid salt] displayed an inhibition constant (Ki) in experiment [1] (wild type FLAP, HTRF format) of 224 nM. In addition, in experiment [2], the IC50 is 264 nM.

The compound `CCNS(=O)(=O)c1ccccc1-c1ccc(-c2cnc(N)nc2)nc1` [Example 683, 2-[6-(2-Aminopyrimidin-5-yl)pyridin-3-yl]-N-ethylbenzenesulfonamide trifluoroacetic acid salt] gave a Ki in experiment [1] (wild type FLAP, HTRF format) of 602 nM. Besides, in experiment [2], the IC50 worked out at 280 nM.

Take `Nc1ncc(-c2ccc(-c3ccccc3S(=O)(=O)NC(C3CC3)C3CC3)cn2)cn1` [Example 684, 2-[6-(2-Aminopyrimidin-5-yl)pyridin-3-yl]-N-(dicyclopropylmethyl)benzenesulfonamide trifluoroacetic acid salt]: the inhibitory constant (Ki) in experiment [1] (wild type FLAP, HTRF format) is 46.3 nM. The IC50 in experiment [2] was determined as 134 nM.
